According to PubChem BioAssay AID248 (DTP/NCI, 2004):
Where “and” joins values, the source holds several entries; their conditions need not be identical. Identical values can stand only once. Toxic doses and inconclusive results are not listed. Cut-off read from the data, not from the text of the source: active = T/C of 150% or more; inactive = T/C below 125%.

System: L1210 leukemia ip in BDF1 mice, survival T/C
Experiment: NCI In Vivo Anticancer Drug Screen. Data for tumor model L1210 Leukemia (intraperitoneal) in B6D2F1 (BDF1) mice
Settings: endpoint: mean survival time, higher = longer survival
How it was run: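 Read-out is survival time, reported as the treated-group measurement over the vehicle-control measurement.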

[1] = dose: 100.0 mg/kg/injection, schedule: Q01DX009 (ip), vehicle: Klucel (hydroxypropylcellulose) (HPC)
[2] = dose: 100.0 mg/kg/injection, schedule: Q04DX003 (ip), vehicle: Klucel (hydroxypropylcellulose) (HPC)
[3] = dose: 200.0 mg/kg/injection, schedule: Q01DX009 (ip), vehicle: Klucel (hydroxypropylcellulose) (HPC)
[4] = dose: 200.0 mg/kg/injection, schedule: Q04DX003 (ip), vehicle: Klucel (hydroxypropylcellulose) (HPC)
[5] = dose: 50.0 mg/kg/injection, schedule: Q01DX009 (ip), vehicle: saline with Tween-80
[6] = dose: 50.0 mg/kg/injection, schedule: Q04DX003 (ip), vehicle: saline with Tween-80
[7] = dose: 100.0 mg/kg/injection, schedule: Q04DX003 (ip), vehicle: saline with Tween-80
[8] = dose: 200.0 mg/kg/injection, schedule: Q04DX003 (ip), vehicle: saline with Tween-80
[9] = dose: 400.0 mg/kg/injection, schedule: Q01DX009 (ip), vehicle: Klucel (hydroxypropylcellulose) (HPC)
[10] = dose: 100.0 mg/kg/injection, schedule: Q01DX001 (ip), vehicle: saline
[11] = dose: 200.0 mg/kg/injection, schedule: Q01DX001 (ip), vehicle: saline
[12] = dose: 400.0 mg/kg/injection, schedule: Q01DX001 (ip), vehicle: saline
[13] = dose: 12.5 mg/kg/injection, schedule: Q01DX009 (ip), vehicle: saline
[14] = dose: 25.0 mg/kg/injection, schedule: Q04DX003 (ip), vehicle: saline
[15] = dose: 50.0 mg/kg/injection, schedule: Q04DX003 (ip), vehicle: saline

Measured: T/C

c1cc[c]([Sb]([S]c2ncnc3nc[nH]c23)[c]2ccccc2)cc1
inactive: dose: 5.0 mg/kg/injection, schedule: Q01DX001 (ip), vehicle: other 97 % of control | dose: 10.0 mg/kg/injection, schedule: Q01DX001 (ip), vehicle: other 116 % of control

O=C(O)C(Cc1cc(I)c(O)c(I)c1)c1ccccc1 (stereo unspecified)
inactive: dose: 50.0 mg/kg/injection, schedule: Q01DX009 (ip), vehicle: Klucel (hydroxypropylcellulose) (HPC) 98 % of control | [1] 97 % of control | [2] 100 % of control | [3] 101 % of control | [4] 100 % of control

Cc1cc(C(=O)NNC(C)Cc2ccccc2)no1 (stereo unspecified)
inactive: dose: 4.6 mg/kg/injection, schedule: Q01DX009 (ip), vehicle: Klucel (hydroxypropylcellulose) (HPC) 94 % of control | dose: 9.3 mg/kg/injection, schedule: Q01DX009 (ip), vehicle: Klucel (hydroxypropylcellulose) (HPC) 94 % of control | dose: 18.75 mg/kg/injection, schedule: Q01DX009 (ip), vehicle: Klucel (hydroxypropylcellulose) (HPC) 97 % of control | dose: 37.5 mg/kg/injection, schedule: Q01DX009 (ip), vehicle: Klucel (hydroxypropylcellulose) (HPC) 97 % of control

CC1CC(C)(C)N=C(CCC2CCCC2=O)O1 (stereo unspecified)
inactive: [5] 104 % of control | [6] 95 % of control | dose: 100.0 mg/kg/injection, schedule: Q01DX009 (ip), vehicle: saline with Tween-80 98 % of control | [7] 91 % of control | dose: 200.0 mg/kg/injection, schedule: Q01DX009 (ip), vehicle: saline with Tween-80 100 % of control | [8] 96 % of control | dose: 400.0 mg/kg/injection, schedule: Q01DX009 (ip), vehicle: saline with Tween-80 100 % of control | dose: 400.0 mg/kg/injection, schedule: Q04DX003 (ip), vehicle: saline with Tween-80 91 % of control

O=c1c2ccccc2[nH]c2ccc(Cl)cc12
inactive: [1] 92 % of control | [2] 96 % of control | [3] 96 % of control | [4] 91 % of control | [9] 86 % of control | dose: 400.0 mg/kg/injection, schedule: Q04DX003 (ip), vehicle: Klucel (hydroxypropylcellulose) (HPC) 100 % of control

CC(C)(C)c1cc(N)cc(C(C)(C)C)c1O
inactive: dose: 200.0 mg/kg/injection, schedule: Q04DX002 (ip), vehicle: saline with Tween-80 87 % of control | dose: 400.0 mg/kg/injection, schedule: Q04DX002 (ip), vehicle: saline with Tween-80 90 % of control

CCC(C)Nc1ccc(NC(=S)Nc2ccc(NC(C)CC)cc2)cc1 (stereo unspecified)
inactive: dose: 100.0 mg/kg/injection, schedule: Q04DX002 (ip), vehicle: other 89 % of control | dose: 200.0 mg/kg/injection, schedule: Q04DX002 (ip), vehicle: other 86 % of control | dose: 400.0 mg/kg/injection, schedule: Q04DX002 (ip), vehicle: other 86 % of control

Cc1ccc(S(=O)(=O)Nc2ccc([N+](=O)[O-])cc2)cc1
inactive: dose: 100.0 mg/kg/injection, schedule: Q01DX001 (ip), vehicle: Klucel (hydroxypropylcellulose) (HPC) 97 % of control | dose: 200.0 mg/kg/injection, schedule: Q01DX001 (ip), vehicle: Klucel (hydroxypropylcellulose) (HPC) 97 % of control | dose: 400.0 mg/kg/injection, schedule: Q01DX001 (ip), vehicle: Klucel (hydroxypropylcellulose) (HPC) 113 % of control

Nc1nc2c(ncn2-c2ccc(NS(=O)(=O)c3cccc(S(=O)(=O)F)c3)cc2)c(=O)[nH]1
inactive: dose: 75.0 mg/kg/injection, schedule: Q01DX001 (ip), vehicle: Klucel (hydroxypropylcellulose) (HPC) 97 % of control | dose: 300.0 mg/kg/injection, schedule: Q01DX001 (ip), vehicle: Klucel (hydroxypropylcellulose) (HPC) 88 % of control

COC12CC3C4=CCOC5CC(=O)N6c7ccccc7C1(CCN2C4)C6C53 (stereo unspecified)
inactive: dose: 5.0 mg/kg/injection, schedule: Q01DX001 (ip), vehicle: saline 97 % of control | dose: 10.0 mg/kg/injection, schedule: Q01DX001 (ip), vehicle: saline 97 % of control | dose: 20.0 mg/kg/injection, schedule: Q01DX001 (ip), vehicle: saline 101 % of control

CS(=O)(=O)c1ccc(Sc2ccc(S(C)(=O)=O)cc2)cc1
inactive: dose: 12.5 mg/kg/injection, schedule: Q01DX009 (ip), vehicle: saline with Tween-80 105 % of control | dose: 25.0 mg/kg/injection, schedule: Q01DX009 (ip), vehicle: saline with Tween-80 96 % of control | dose: 25.0 mg/kg/injection, schedule: Q04DX003 (ip), vehicle: saline with Tween-80 98 % of control | [5] 92 % of control | [6] 94 % of control | [7] 93 % of control

CC(=O)OC12CCC34CCC5(CCC(OC(C)=O)(O1)C5C32)O4 (stereo unspecified)
inactive: dose: 100.0 mg/kg/injection, schedule: Q01DX001 (ip), vehicle: saline with Tween-80 105 % of control | dose: 200.0 mg/kg/injection, schedule: Q01DX001 (ip), vehicle: saline with Tween-80 98 % of control | dose: 400.0 mg/kg/injection, schedule: Q01DX001 (ip), vehicle: saline with Tween-80 98 % of control

CCOC(=O)C1=NN(c2ccccc2)C(=O)C1N=Nc1ccc(S(=O)(=O)Nc2nccc(C)n2)cc1 (stereo unspecified)
inactive: [10] 95 % of control | [11] 101 % of control | [12] 102 % of control

Cc1ccc(Nc2ccc(Nc3ccc(CCO)cc3)c3c2C(=O)c2ccccc2C3=O)cc1
inactive: [1] 96 % of control | [3] 100 % of control | [9] 89 % of control

O=C(N/N=C/c1ccc(Cl)c(Cl)c1)c1cccc2ccccc12
inactive: [10] 87 % of control | [12] 90 % of control

Cc1cc(C)c([As](=O)(O)O)c([N+](=O)[O-])c1
inactive: [10] 90 % of control | [11] 101 % of control | [12] 104 % of control

CCCCn1cnc(=O)c2[nH]cnc21
inactive: dose: 3.12 mg/kg/injection, schedule: Q01DX009 (ip), vehicle: saline 90 % of control | dose: 6.25 mg/kg/injection, schedule: Q01DX009 (ip), vehicle: saline 94 % of control | [13] 95 % of control | dose: 25.0 mg/kg/injection, schedule: Q01DX001 (ip), vehicle: saline 98 % of control | [14] 96 % of control | dose: 50.0 mg/kg/injection, schedule: Q01DX001 (ip), vehicle: saline 96 % of control | dose: 50.0 mg/kg/injection, schedule: Q01DX009 (ip), vehicle: saline 97 % of control | [15] 105 % of control | [10] 100 % of control | dose: 100.0 mg/kg/injection, schedule: Q01DX009 (ip), vehicle: saline 87 % of control | dose: 100.0 mg/kg/injection, schedule: Q04DX003 (ip), vehicle: saline 107 % of control

NC(N)=N/N=C/c1cccnc1
inactive: dose: 15.0 mg/kg/injection, schedule: Q01DX Z (oral), vehicle: saline 97 % of control | dose: 30.0 mg/kg/injection, schedule: Q01DX Z (oral), vehicle: saline 97 % of control | dose: 60.0 mg/kg/injection, schedule: Q01DX Z (oral), vehicle: saline 97 % of control and 100 % of control | dose: 120.0 mg/kg/injection, schedule: Q01DX Z (oral), vehicle: saline 96 % of control and 107 % of control | dose: 240.0 mg/kg/injection, schedule: Q01DX Z (oral), vehicle: saline 94 % of control | dose: 480.0 mg/kg/injection, schedule: Q01DX Z (oral), vehicle: saline 89 % of control

CN1Cc2cc3cc(c2O)C[N+](C)(C)Cc2c(Cl)c(c(Cl)c(c2Cl)C[N+](C)(C)C3)C1
inactive: [13] 98 % of control | dose: 12.5 mg/kg/injection, schedule: Q04DX003 (ip), vehicle: saline 97 % of control | dose: 25.0 mg/kg/injection, schedule: Q01DX009 (ip), vehicle: saline 98 % of control | [14] 97 % of control | [15] 92 % of control

O=C1c2cc([N+](=O)[O-])ccc2-c2cc(Cl)c(NC(=O)C(Cl)Cl)cc21
inactive: dose: 50.0 mg/kg/injection, schedule: Q01DX001 (ip), vehicle: carboxymethylcellulose (CMC) 101 % of control | dose: 100.0 mg/kg/injection, schedule: Q01DX001 (ip), vehicle: carboxymethylcellulose (CMC) 104 % of control | dose: 200.0 mg/kg/injection, schedule: Q01DX001 (ip), vehicle: carboxymethylcellulose (CMC) 101 % of control | dose: 400.0 mg/kg/injection, schedule: Q01DX001 (ip), vehicle: carboxymethylcellulose (CMC) 104 % of control

COc1ccc(CCC2=NCCN2)cc1OC
inactive: [7] 103 % of control | [8] 97 % of control
